The source of these data is paper PMC4018993, “Use of “one-pot, mix-and-read” peptide-MHC class I tetramers and predictive algorithms to improve detection of cytotoxic T lymphocyte responses in cattle” (Veterinary Research, 2014).

“Also recorded” adds a separate entry of the source.

Assay [1] concerns CTL line Bx63. Kind of assay: p-MHC class I tetramer staining of CTL line Bx63. In kind it is cell-based, bovine. The settings on record: cell line Bx63; Tp8_379-387-BoLA-3*00101 tetramers. On the procedure: (§1) UFC510024] at 14 000 g for 10 min.
The test system of assay [2] is BoLA-6*01301. On the procedure: Peptides were purchased from Mimotopes (Victoria, Australia) at a purity of 95% and re-suspended in water containing 0.1% acetic acid at a final concentration of 10 mM and diluted to working concentrations in sterile water. The sequences of T. parva peptide epitopes are as in Table 1.
For assay [3], the system named is CTL line BB007. The experiment in a line: p-MHC class I tetramer staining of CTL line BB007. Type of assay: cell-based, bovine. As to conditions: peptide as BoLA-6*01301 tetramer, PE-streptavidin; Figure 1. On the procedure: as §1
The test system of assay [4] is CTL line Bx196. Kind of assay: p-MHC class I tetramer staining of CTL line Bx196. Type of assay: cell-based, bovine. As to conditions: cell line printed as 196; Tp2_96-104-BoLA-T2c tetramers. On the procedure: as §1
The subject of assay [5] is BoLA-1*02301. The experiment in a line: p-MHC monomer binding assay, BoLA-1*02301. More on the design: species or system bovine. The settings on record: data not shown. On the procedure: (§2) Folding of p-MHC class I complexes was assessed with an ELISA assay as described in [35]. […] After an incubation of 48 h at 18 °C, the complexes were transferred to another 96-well plate pre-coated with streptavidin (Nunc, cat# 436014), which captures biotinylated HC, and incubated for three hours at 4 °C. After washing, the W6/32 monoclonal antibody (Santa Cruz Biotechnology, Texas, USA, cat # SC-32235), which binds to a monomorphic epitope on β2m but only when it is incorporated in p-MHC class I complexes, was added for 1 h at 4 °C. After washing, anti-mouse IgG coupled to peroxidase (Sigma Aldrich, cat # A9917-1ML) was added to the plate followed by incubation for an hour at room temperature and further rounds of washes. Colorimetric change was performed by adding the TMB Plus2 “Ready to Use” Substrate (Kem En Tec, cat # 4395H) for 10 min at room temperature. The reaction was stopped by adding H2SO4 (0.3 M) and optical density was measured using an ELISA plate reader at 450 nm. The concentration of MHC class I and β2m molecules used in such assays is normally in the nanomolar range [35]. […] We are in the process of generating a β2m without the extra start methionine, which should allow use of recombinant molecules in the nanomolar range.

For assay [6], the system named is CTL line BV50. Kind of assay: p-MHC class I tetramer staining of CTL line BV50. In kind it is cell-based, bovine. On the procedure: as §1
The subject of assay [7] is BoLA-T5. The experiment in a line: peptide-BoLA binding assay, BoLA-T5. The settings on record: peptide-BoLA binding assays. More on the design: species or system bovine. On the procedure: as §2
The subject of assay [8] is BoLA-3*00101. More on the design: method as in PMID 18070892. The settings on record: ref [29]; cited from earlier work.
Assay [9] has as its target BoLA-T7 (bovine). Kind of assay: not stated; preliminary data, not shown.
Assay [10] concerns PBMC of BoLA-A18 cattle. Kind of assay: ex vivo tetramer staining of PBMC from ITM-vaccinated cattle. The settings on record: days 15 to 17 post ITM vaccination, T. parva Muguga 3308; Tp1_214-224-BoLA-6*01301 tetramers; three BoLA-A18 cattle. On the procedure: Three cattle of BoLA-A18 haplotype (typed with PCR primers [forward] 5’-[…]-3’ and [reverse] 5’-[…]-3’ specific for BoLA-6*01301) were vaccinated by ITM [24] using the T. parva strain Muguga 3308. Whole blood was collected from these cattle at the day of vaccination (day 0) and every two days till appearance of tetramer positive cells. PBMC were purified on Ficoll paque density gradients at 2500 rpm for 25 min and 5 × 10^5 PBMC were stained with the Tp1_214-224-BoLA-6*01301 tetramer as described in the flow cytometry procedure. This animal experiment was approved by the ILRI IACUC committee [# 2012.10].

Assay [11] concerns CTL line BB007. Kind of assay: multiple staining of tetramer-positive cells (CD8, FasL, perforin). Type of assay: cell-based, bovine.
Method: Flow cytometry data were acquired on a BD FACSCanto™ II instrument (BD Biosciences). Compensation controls for PE, PerCP, FITC and APC were included for automatic compensation by the FACS DIVA software. 10 μL BoLA class I tetramer was used for staining cells (between 2 × 10^5 and 5 × 10^5 cells per sample). CD8 staining was done by incubating cells with ILRI monoclonal antibody ILA51 (IgG1) and using rat anti-mouse IgG1-PerCP (BD; cat # 340272) as the secondary antibody. Staining for perforin was done using anti-human-perforin-FITC (BD Pharmingen, San diego, CA, USA, cat# 556577) and staining for Fas-ligand was done using primary rabbit anti-Fas ligand (Santa Cruz biotechnology, cat no. SC-957) and secondary FITC-coupled anti-rabbit IgG antibody (Sigma, MO, USA, cat# F-0382). All staining were conducted in PBS-0.5% BSA except for intracellular staining with anti-perforin where cells were incubated and stained in PBS-0.1%Saponin-10% FBS. Negative control for intracellular staining was done with anti-dansyl-FITC antibody (BD Pharmingen, San diego, CA, USA, cat# 556577). The data were analyzed using the FlowJo software version 7.6.5.

Regarding CGAELNHFL [Tp8_379-387], the “tetramer positive cells” value in assay [1] is recorded as “about 3%”.
On to “FAQSLVCVL [Tp2_96-104, irrelevant peptide for BoLA-6*01301]”, for which the “binding to BoLA-6*01301 (in words)” value in [2] is “does not bind BoLA-6*01301”. Besides, the “tetramer staining of CTL (in words)” value in assay [3] is given as “low level smear staining”. The “tetramer positive cells” value in assay [4] is “about 65%”.
As for SKADVIAKY [Tp5_87-95], the “p-MHC monomer binding to BoLA-1*02301 (in words)” value in assay [5] is “confirmed by p-MHC monomer binding assays; also recorded: does indeed bind both BoLA molecules”. The “co-staining by Tp5_87-95-BoLA-1*02301 (PE) and Tp5_87-95-BoLA-T5 (APC) tetramers (in words)” value in [6] (CD8-gated, Figure 7C) was “both tetramers bind the same population of CTL; also recorded: a single TCR can recognize the Tp5_87-95 epitope presented by either BoLA molecule”. The “tetramer staining of BV50 (in words)” value is given as “The only CTL line stained by this tetramer was BV50” in [6] (peptide as Tp5_87-95-BoLA-1*02301 tetramer, BV50 and 495 lines tested); “also stained by Tp5_87-95-BoLA-T5 p-MHC class I tetramers” in assay [6] (peptide as Tp5_87-95-BoLA-T5 tetramer, Figure 7B). Besides, the “peptide-BoLA binding, BoLA-T5 (in words)” value in [7] is recorded as “does indeed bind both BoLA molecules”.
Take “TGASIQTTL [Tp4 CTL epitope, control peptide for BoLA-3*00101]”: the “binding to BoLA-3*00101 (in words)” value in [8] was “known binder to BoLA-3*00101”.
As for Tp7_(206-214) peptide, the Kd in [9] was determined as 252 nM.
Tp7_(207-214) peptide: the dissociation constant (Kd) in assay [9] worked out at 142 nM.
As for VGYPKVKEEML [Tp1_214-224], the “tetramer staining of CTL (in words)” value in [3] is “staining of a clear distinct cell population”. Further, in [10], the “frequency of Tp1 tetramer positive cells in PBMC” value is given as “about 1%”. Besides, the “CD8 and perforin, triple staining” value in assay [11] (Figure 4D) is “tetramer-positive cells are also positive for CD8 and perforin”. Besides, the “CD8 expression of Tp1 tetramer positive cells” value in assay [11] (Tp1_214-224-BoLA-6*01301 tetramer, Figure 4A) was “all Tp1 positive cells in the cell line BB007 were CD8-positive”. Besides, the “FasL expression of Tp1 tetramer positive cells” value in assay [11] (Tp1_214-224-BoLA-6*01301 tetramer, Figure 4B) is listed as “FasL-positive”. The “perforin expression of Tp1 tetramer positive cells” value in [11] (Tp1_214-224-BoLA-6*01301 tetramer, Figure 4C) is given as “perforin-positive”.
Consider YMYRVWSPL, for which the “binding to BoLA-6*01301 (in words)” value in assay [2] is listed as “binds to BoLA-6*01301”. Besides, the “affinity for BoLA-6*01301” value in assay [2] (control peptide from a bank of random nonamer peptides, binding assay as described in [34]) was not below 1 nM. Moreover, in [3], the “tetramer staining of CTL (in words)” value is reported as “very low staining”.
